Experimental findings from patent US11014911B2, “CDK2 inhibitors” (Pfizer Inc., priority 2019, dated 2021) are described below.

One may read the Ki as a dissociation constant, usually derived from enzyme kinetics or from competition with a known ligand.

The test concerns the target CDK2/Cyclin E1 full length (Homo sapiens (Human), UniProt P24941). Kind of test: CDK2/Cyclin E1 full length mobility shift assay. Type of test: biochemical.
Protocol: Cdk2/Cyclin E1 Full Length Mobility Shift Assay
Wild-type CDK2/wild-type full length Cyclin E1 enzyme complex was produced in-house (baculoviral expression, LJIC-2080/LJIC-2103) and phosphorylated by CDK7/Cyclin H1/Matl enzyme complex with CDK2:CDK7 ratio of 50:1 (concentration mg/mL) in the presence of 10 mM MgCl2 and 5 mM ATP at room temperature for one hour. […] The assay was initiated with the addition of ATP, following a fifteen minutes pre-incubation of enzyme and inhibitor at room temperature in the reaction mixture. The reaction was stopped after 45 minutes at room temperature by the addition of 50 μL of 80 mM EDTA.
For the compound `CCC1(NC(=O)O[C@@H]2CC[C@H](c3cc(NC(=O)Cc4cnc(OC)cn4)n[nH]3)C2)CC1` [Example 450, (1R,3S)-3-(3-{[(5-methoxypyrazin-2-yl)acetyl]amino}-1H-pyrazol-5-yl)cyclopentyl (1-ethylcyclopropyl)carbamate], the Ki amounted to 0.38 nM.

As for `O=C(Cc1ccon1)Nc1cc([C@H]2CC[C@@H](OC(=O)NC3(CC(F)(F)F)CC3)C2)[nH]n1` [Example 451, (1R,3S)-3-{3-[(1,2-oxazol-3-ylacetyl)amino]-1H-pyrazol-5-yl}cyclopentyl [1-(2,2,2-trifluoroethyl)cyclopropyl] carbamate], the Ki stood at 0.46 nM.

Regarding `Cc1ccc(C(=O)Nc2cc([C@H]3CC[C@@H](OC(=O)NC4(CC(F)(F)F)CC4)C3)[nH]n2)cn1` [Example 452, (1R,3S)-3-(3-{[(6-methylpyridin-3-yl)carbonyl]amino}-1H-pyrazol-5-yl)cyclopentyl [1-2,2,2-trifluoroethyl)cyclopropyl] carbamate], the inhibition constant Ki is 0.51 nM.

For the compound `Cc1cc(CC(=O)Nc2cc([C@H]3CC[C@@H](OC(=O)NC4(CC(F)(F)F)CC4)C3)[nH]n2)on1` [Example 453, (1R,3S)-3-(3-{[(3-methyl-1,2-oxazol-5-yl)acetyl]amino}-1H-pyrazol-5-yl)cyclopentyl [1-(2,2,2-trifluoroethyl)cyclopropyl]carbamate], the Ki stood at 0.29 nM.

As to `Cc1cnc(CC(=O)Nc2cc([C@H]3CC[C@@H](OC(=O)NC4(CC(F)(F)F)CC4)C3)[nH]n2)o1` [Example 454, (1R,3S)-3-(3-{[(5-methyl-1,3-oxazol-2-yl)acetyl]amino}-1H-pyrazol-5-yl)cyclopentyl[1-(2,2,2-trifluoroethyl)cyclopropyl]carbamate], the Ki amounted to 0.48 nM.

Turning to `COc1cnc(CC(=O)Nc2cc([C@H]3CC[C@@H](OC(=O)NC4(CC(F)(F)F)CC4)C3)[nH]n2)cn1` [Example 456, (1R,3S)-3-(3-{[(5-methoxypyrazin-2-yl)acetyl]amino}-1H-pyrazol-5-yl)cyclopentyl [1-2,2,2-trifluoroethyl)cyclopropyl] carbamate], the inhibition constant (Ki) was 0.38 nM.

In the case of `COCc1cc(C(=O)Nc2cc([C@H]3CC[C@@H](OC(=O)NC4(CC(F)(F)F)CC4)C3)[nH]n2)n(C)n1` [Example 457, (1R,3S)-3-[3-({[3-(methoxymethyl)-1-methyl-1H-pyrazol-5-yl]carbonyl}amino)-1H-pyrazol-5-yl]cyclopentyl [1-(2,2,2-trifluoroethyl)cyclopropyl] carbamate], the Ki is 0.38 nM.

As to `O=C(Cc1ccno1)Nc1cc([C@H]2CC[C@@H](OC(=O)NC3CCC3)C2)[nH]n1` [Example 458, (1R,3S)-3-{3-[(1,2-oxazol-5-ylacetyl)amino]-1H-pyrazol-5-yl}cyclopentyl cyclobutylcarbamate], the Ki came out at 3.07 nM.

As to `Cc1nnc(CC(=O)Nc2cc([C@H]3CC[C@@H](OC(=O)NC4(C)CCC4)C3)[nH]n2)o1` [Example 459, (1R,3S)-3-(3-{[(5-methyl-1,3,4-oxadiazol-2-yl)acetyl]amino}-1H-pyrazol-5-yl)cyclopentyl (1-methylcyclobutyl)carbamate], the Ki is 0.32 nM.

Take `C[C@H]1CCC[C@H]1NC(=O)O[C@@H]1CC[C@H](c2cc(NC(=O)Cc3ccno3)n[nH]2)C1` [Example 461, (1R,3S)-3-{3-[(1,2-oxazol-5-ylacetyl)amino]-1H-pyrazol-5-yl}cyclopentyl [(1R,2S)-2-methylcyclopentyl]carbamate]: the inhibition constant Ki amounted to 1.75 nM.

Turning to `Cc1ncc(CC(=O)Nc2cc([C@H]3CC[C@@H](OC(=O)N[C@@H]4CCC[C@@H]4C)C3)[nH]n2)o1` [Example 462, (1R,3S)-3-(3-{[(2-methyl-1,3-oxazol-5-yl)acetyl]amino}-1H-pyrazol-5-yl)cyclopentyl [(1R,2S)-2-methylcyclopentyl]carbamate], the inhibition constant Ki came out at 1.74 nM.

Consider `Cc1ncc(CC(=O)Nc2cc([C@H]3CC[C@@H](OC(=O)N[C@H]4CCC[C@H]4C)C3)[nH]n2)s1` [Example 464, (1R,3S)-3-(3-{[(2-methyl-1,3-thiazol-5-yl)acetyl]amino}-1H-pyrazol-5-yl)cyclopentyl [(1S,2R)-2-methylcyclopentyl]carbamate], for which the inhibition constant Ki worked out at 2.63 nM.

With `O=C(Cc1ccno1)Nc1cc([C@H]2CC[C@@H](OC(=O)NCC3CC3)C2)[nH]n1` [Example 465, (1R,3S)-3-{3-[(1,2-oxazol-5-ylacetyl)amino]-1H-pyrazol-5-yl}cyclopentyl (cyclopropylmethyl)carbamate], the Ki was 1.95 nM.

As to `C[C@H](NC(=O)O[C@@H]1CC[C@H](c2cc(NC(=O)Cc3ccon3)n[nH]2)C1)C1CC1` [Example 466, (1R,3S)-3-{3-[(1,2-oxazol-3-ylacetyl)amino]-1H-pyrazol-5-yl}cyclopentyl [(1S)-1-cyclopropylethyl]carbamate], the Ki amounted to 1.02 nM.

With `C[C@@H](NC(=O)O[C@@H]1CC[C@H](c2cc(NC(=O)Cc3ccon3)n[nH]2)C1)C1CC1` [Example 467, (1R,3S)-3-{3-[(1,2-oxazol-3-ylacetyl)amino]-1H-pyrazol-5-yl}cyclopentyl [(1R)-1-cyclopropylethyl]carbamate], the Ki stood at 1.2 nM.

As to `Cc1cc(CC(=O)Nc2cc([C@H]3CC[C@@H](OC(=O)N[C@@H](C)C4CC4)C3)[nH]n2)on1` [Example 468, (1R,3S)-3-(3-{[(3-methyl-1,2-oxazol-5-yl)acetyl]amino}-1H-pyrazol-5-yl)cyclopentyl [(1S)-1-cyclopropylethyl]carbamate], the Ki is 0.35 nM.

With `Cc1cc(CC(=O)Nc2cc([C@H]3CC[C@@H](OC(=O)N[C@H](C)C4CC4)C3)[nH]n2)on1` [Example 469, (1R,3S)-3-(3-{[(3-methyl-1,2-oxazol-5-yl)acetyl]amino}-1H-pyrazol-5-yl)cyclopentyl [(1R)-1-cyclopropylethyl]carbamate], the Ki came out at 0.31 nM.

Regarding `Cc1cnc(CC(=O)Nc2cc([C@H]3CC[C@@H](OC(=O)N[C@@H](C)C4CC4)C3)[nH]n2)cn1` [Example 470, (1R,3S)-3-(3-{[(5-methylpyrazin-2-yl)acetyl]amino}-1H-pyrazol-5-yl)cyclopentyl [(1S)-1-cyclopropylethyl]carbamate], the inhibitory constant (Ki) was 0.83 nM.

For the compound `Cc1cnc(CC(=O)Nc2cc([C@H]3CC[C@@H](OC(=O)N[C@H](C)C4CC4)C3)[nH]n2)cn1` [Example 471, (1R,3S)-3-(3-{[(5-methylpyrazin-2-yl)acetyl]amino}-1H-pyrazol-5-yl)cyclopentyl [(1R)-1-cyclopropylethyl]carbamate], the Ki came out at 1.43 nM.

Regarding `COc1cnc(CC(=O)Nc2cc([C@H]3CC[C@@H](OC(=O)N[C@H](C)C4CC4)C3)[nH]n2)cn1` [Example 472, (1R,3S)-3-(3-{[(5-methoxypyrazin-2-yl)acetyl]amino}-1H-pyrazol-5-yl)cyclopentyl [(1R)-1-cyclopropylethyl]carbamate], the inhibitory constant (Ki) was 1.17 nM.

As for `CC1(NC(=O)O[C@@H]2CC[C@H](c3cc(NC(=O)CC4COc5ccccc54)n[nH]3)C2)CCOC1` (stereo partly drawn) [Example 491, (1R,3S)-3-(3-{[(3ξ)-2,3-dihydro-1-benzofuran-3-ylacetyl]amino}-1H-pyrazol-5-yl)cyclopentyl [(3ξ)-3-methyltetrahydrofuran-3-yl]carbamate], the Ki amounted to 3.87 nM.

On to `COc1cc(CC(=O)Nc2cc([C@@H]3CC[C@H](OC(=O)NC[C@@H]4CCCO4)C3)[nH]n2)ccn1` [Example 497, (1S,3R)-3-(3-{[(2-methoxypyridin-4-yl)acetyl]amino}-1H-pyrazol-5-yl)cyclopentyl [(2S)-tetrahydrofuran-2-ylmethyl]carbamate], for which the inhibitory constant (Ki) stood at 4.38 nM.

Take `O=C(Cc1cc(F)cc(F)c1)Nc1cc([C@@H]2CC[C@H](OC(=O)NC[C@H]3CCCO3)C2)[nH]n1` [Example 498, (1S,3R)-3-(3-{[(3,5-difluorophenyl)acetyl]amino}-1H-pyrazol-5-yl)cyclopentyl [(2R)-tetrahydrofuran-2-ylmethyl]carbamate]: the Ki was found to be 4.28 nM.

`O=C(Cc1cc(F)cc(F)c1)Nc1cc([C@@H]2CC[C@H](OC(=O)NC[C@@H]3CCCO3)C2)[nH]n1` [Example 499, (1S,3R)-3-(3-{[(3,5-difluorophenyl)acetyl]amino}-1H-pyrazol-5-yl)cyclopentyl [(2S)-tetrahydrofuran-2-ylmethyl]carbamate]: the Ki was 2.55 nM.

On to `Cc1ncc(CC(=O)Nc2cc([C@@H]3CC[C@H](OC(=O)NC4CCOCC4)C3)[nH]n2)s1` [Example 500, (1S,3R)-3-(3-{[(2-methyl-1,3-thiazol-5-yl)acetyl]amino}-1H-pyrazol-5-yl)cyclopentyl tetrahydro-2H-pyran-4-ylcarbamate], for which the Ki amounted to 2.36 nM.

On to `COc1ccc(CC(=O)Nc2cc([C@H]3CC[C@@H](OC(=O)NC4CCOCC4)C3)[nH]n2)cc1` [Example 502, (1R,3S)-3-(3-{[(4-methoxyphenyl)acetyl]amino}-1H-pyrazol-5-yl)cyclopentyl tetrahydro-2H-pyran-4-ylcarbamate], for which the Ki was determined as 3.71 nM.

Take `COc1cc(CC(=O)Nc2cc([C@@H]3CC[C@H](OC(=O)NC4CCOCC4)C3)[nH]n2)ccn1` [Example 503, (1S,3R)-3-(3-{[(2-methoxypyridin-4-yl)acetyl]amino}-1H-pyrazol-5-yl)cyclopentyl tetrahydro-2H-pyran-4-ylcarbamate]: the Ki came to 2.13 nM.

As to `COc1cc(CC(=O)Nc2cc([C@H]3CC[C@@H](OC(=O)NC4CCOCC4)C3)[nH]n2)ccn1` [Example 504, (1R,3S)-3-(3-{[(2-methoxypyridin-4-yl)acetyl]amino}-1H-pyrazol-5-yl)cyclopentyl tetrahydro-2H-pyran-4-ylcarbamate], the Ki was 3.64 nM.

On to `O=C(Cc1cc(F)cc(F)c1)Nc1cc([C@H]2CC[C@@H](OC(=O)NC3CCOCC3)C2)[nH]n1` [Example 505, (1R,3S)-3-(3-{[(3,5-difluorophenyl)acetyl]amino}-1H-pyrazol-5-yl)cyclopentyl tetrahydro-2H-pyran-4-ylcarbamate], for which the inhibitory constant (Ki) stood at 1.6 nM.

`Cn1ccc(CC(=O)Nc2cc([C@H]3CC[C@@H](OC(=O)NC4(C)CCOCC4)C3)[nH]n2)n1` [Example 507, (1R,3S)-3-(3-{[(1-methyl-1H-pyrazol-3-yl)acetyl]amino}-1H-pyrazol-5-yl)cyclopentyl (4-methyltetrahydro-2H-pyran-4-yl)carbamate]: the Ki was found to be 3.69 nM.
